The subject of one data set is BT474. Put plainly: cell count proliferation assay. It is filed as cell-based. Also on record: key: +: A positive scoring in these Tables represent cells in which a 2-5 and a 10-40 fold reduction in the total number of cells relative to the control untreated cells was observed after 3 and 7 days of culture with F16, respectively. As to conditions: BT474, human breast; F16 3 μM, cells counted after 3 and 7 days.

A further data set relates to EpH-A6 cells. The experiment in a line: tumor growth of EpH-A6 cells injected subcutaneously in nude mice. It is filed as in vivo, mouse. Also on record: Tumor weight, right flank / Tumor weight, left flank: unit not given here. The following applies: for Tumor weight, left flank / Tumor weight, right flank: individual nude mice, F16 20 mg/kg intraperitoneally twice a day, 20 mg/kg. On the procedure:
Twenty nude mice of 8-10 weeks of age were injected subcutaneously with 10^6 EpH-A6 cells in the left and right flanks. Three days after the cell injection, a 20 mg/kg dose of F16 (40% DMSO/60% PBS) was injected intraperitoneally twice a day to a group of 10 mice, and an equivalent dose of vehicle to the remaining 10 mice (placebo mice). After 10 days of treatment, tumors were removed from all mice and weighted. Tumor tissue was used for FACS analysis, pathology, and some were stored at −70° C. until further processing.

Data set [1] can be described thus: total body weight of mice during treatment. As to conditions: relative to weight at the beginning of the experiment; 20 mg/kg twice a day. The format is in vivo, mouse. From the text: The total weight of the mice was also monitored every other day during the course of the treatment with F16.
Data set [2] relates to EpH4-EV and EpH4-A6 cells. The experiment in a line: intracellular colocalization with Mitotracker Red / Lysotracker Red / Hoescht. It is filed as cell-based, mouse. As to conditions: 3 μM F16, 2 hours. On the procedure: 2×10^4 EpH4-EV and EpH4-A6 cells were seeded in 6 well chamber slides. Next morning, cells were left untreated or treated with F16 at 3 μM for 2 hours. Cells were incubated with Hoescht stain for 30 minutes and then visualized under the microscope. Hoescht stain specifically stains the nuclei of cells. A mitochondrial specific stain, Mitotracker Red (Molecular Probes), was added to the medium to stain mitochondria, and Lysotracker Red to stain lysosomes and acidic compartments, according to manufacturer procedure. Hoescht stain was also included in the medium (together with the other stains). Cells were photographed under Axioskop (Zeiss) using a Spot Camera (Diagnostic Instruments).

The subject of another data set is A6 cells. The experiment in a line: electron-microscopy analysis of mitochondria. It is filed as cell-based, mouse. The following applies: 3 μM F16, abnormalities evident as early as 15 hr. On the procedure: (§1) Electron-microscopy analysis was performed on untreated or F16-treated A6 cells, control cells and tumor cell lines SH1.1 and SMF to search for potential mitochondria lesions due to F16 accumulation. Cells grown in 35 mm dishes were left untreated or treated with 3 μM F16 for the indicated times, and fixed for 1 hr at room temperature in 0.1 M Cacodylate buffer containing 1.25% formaldehyde, 2.5% glutaraldehyde and 0.3% picric acid. Samples were then treated with 1% osmiuntetroxide/1.5% potassiumferrocyanide, followed by 1% uranyl acetate, dehydrated and epon-araldite embedded. Ultrathin sections were examined using a JEOL 1200EX microscope.

The next data set concerns control cells. Put plainly: electron-microscopy analysis of mitochondria. It is filed as cell-based, mouse. The following applies: 3 μM F16. The method, then: as §1
The subject of data set [3] is isolated mouse liver mitochondria. Put plainly: swelling of isolated mitochondria (permeability transition pore opening). The format is biochemical. The following applies: 0.5 mg/ml mitochondria.
Description: Mitochondria were isolated from liver of Balb/c7 mice by standard differential centrifugation, and resuspended in isolation buffer (0.2 M sucrose, 10 mM Tris-MOPS pH 7.4, 0.1 mM EGTA-Tris, 0.1% delipidated BSA) (Costantini et al. (1995) Toxicology (99) 77-88). Protein concentration was determined by Bradford assay. For swelling determination, changes in side scatter at 545±2.5 nm of a 0.5 mg/ml suspension of mitochondria in experimental buffer (125 mM KCl, 10 mM Tris-MOPS pH 7.4, 1 mM Pi, 5 mM glutamate, 2.5 mM malate, 10 μM EGTA-Tris, pH 7.4) were monitored by using LS-50B spectrofluorimeter. […] All reactions were performed at 25° C. and the instrument was equipped with magnetic stirring.
The test system is the same in data set [4]. The experiment in a line: mitochondrial oxygen consumption (Clarke-type oxygen electrode). It is filed as biochemical. The method, then:
Mitochondria were isolated from liver of Balb/c7 mice by standard differential centrifugation, and resuspended in isolation buffer (0.2 M sucrose, 10 mM Tris-MOPS pH 7.4, 0.1 mM EGTA-Tris, 0.1% delipidated BSA) (Costantini et al. (1995) Toxicology (99) 77-88). Protein concentration was determined by Bradford assay. For swelling determination, changes in side scatter at 545±2.5 nm of a 0.5 mg/ml suspension of mitochondria in experimental buffer (125 mM KCl, 10 mM Tris-MOPS pH 7.4, 1 mM Pi, 5 mM glutamate, 2.5 mM malate, 10 μM EGTA-Tris, pH 7.4) were monitored by using LS-50B spectrofluorimeter. To monitor changes in mitochondrial membrane potential, the intrinsic potentiometric properties of F16 were used. Mitochondria (0.5 mg/ml) were incubated in experimental buffer with the indicated concentrations of F16 and changes in F16 fluorescence intensity were measured, using a LS-50B spectrofluorimeter at 25° C., with excitation and emission wavelengths set at 415±2.5 nm and 520±5 nm, respectively. […]
The mechanism of PTP induction by F16 was further investigated as follows. […] First, the effects of F16 were measured on basal (state 4) and uncoupled mitochondrial respiration as follows. Oxygen consumption was determined using a Clarke-type oxygen electrode equipped with thermostatic control and magnetic stirring. […]

In data set [5] the test system is Neu, PKB/Akt and MAP kinase in EpH4-A6 cells. The experiment in a line: Western blot of Neu-dependent signaling. The format is cell-based, mouse. As to conditions: 3 μM F16, FIG. 12. On the procedure:
In parallel to the characterization of the effect of F16 on mitochondria homeostasis the effect of F16 on cell signaling was investigated. Control and Neu-overexpressing EpH4-A6 cells were left untreated or treated with 3 μM F16 for 24 and 48 hr. Whole cell lysates were prepared as described above. Samples were immnoblotted with antibodies against Neu, PKB, MAPK, as well as antibodies that react with the phosphorylated forms of the proteins, as described above. Samples were probed with anti-β-actin as loading control, also as described above.

Values joined by “and” are separate entries in the source; they are usually repeats but may differ in a detail not shown here. Equal entries are not always repeated.

Take `C[n+]1ccc(/C=C/c2c[nH]c3ccccc23)cc1.[I-]` [F16]: in the data set on BT474, the F16 response entry is “+”. The “Tumor weight, left flank” value in the data set on EpH-A6 cells (Experiment #1, 10 days) is 0.1131 and 0.0293 and 0.1365 and 0.021 and 0.1463 and 0.1127 and 0.1186 and 0.097 and 0.1163 and 0.1174; in the data set with EpH-A6 cells (Experiment #2, 10 days) it was 0.054 and 0.4294 and 0.3368 and 0.041 and 0.2375 and 0.2087 and 0.1809 and 0.0454 and 0.1417 and 0. In addition, the “Tumor weight, right flank” value in the data set with EpH-A6 cells (Experiment #1, 10 days) was 0.214 and 0.0666 and 0.1984 and 0.1597 and 0.1645 and 0.1127 and 0.2314 and 0.2412 and 0.2408 and 0.2174; in the data set on EpH-A6 cells (Experiment #2, 10 days) it was 0.022 and 0.632 and 0.2078 and 0.1798 and 0.1063 and 0.2621 and 0.1315 and 0.1971 and 0.3451 and 0. In addition, in the data set with EpH-A6 cells (F16 20 mg/kg twice a day, 10 days), the “difference in tumor size relative to the control mice” value is 2-3 fold. Moreover, the “cells undergoing mitosis in tumors (pathology)” value in the data set on EpH-A6 cells (at least some F16 treated tumors compared to untreated tumors) is “decrease in number of cells undergoing mitosis”. Also, the “average total body weight loss” value in data set [1] was found to be 3.3%. Also, the “intracellular localization of F16 staining” value in data set [2] is given as “overlapped with the mitochondrial staining, but not with the lysosomal staining”. Besides, the mitochondrial ultrastructure entry was “progressive swelling and disruption of mitochondrial integrity” in the data set on A6 cells; “no abnormalities in mitochondria morphology” in the data set with control cells. The “swelling of purified mitochondria” value in [3] is recorded as “swelling of purified mitochondria in a dose-dependent fashion”. Also, in data set [4], the uncoupled mitochondrial respiration result is “inhibits uncoupled respiration”. The “state 4 (basal) mitochondrial oxygen consumption” value in data set [4] (substrates for complexes I and II+III) was “increase in state 4 of mitochondrial oxygen consumption”. Moreover, in data set [5], the “phosphotyrosine content of Neu, phosphorylated PKB/Akt, and phosphorylated MAP kinase” value was “decreased”.

Values taken from patent publication US20040097408A1, “Compounds regulating cell proliferation and differentiation” (priority 2001, published 2004).
